Experimental data reported in PMC5681660, “Reduced hepatitis B and D viral entry using clinically applied drugs as novel inhibitors of the bile acid transporter NTCP” (Scientific Reports, 2017).
Structures can show the parent of a compound that is named as a salt. Where two headings read alike, the source gives them in different places.

How the values were obtained:
human NTCP [1] = target: T1, human NTCP (Homo sapiens, UniProt Q14973); test: Screening fluorescent competitive Myrcludex B-FITC binding assay (96-well, 10 µM drug)
T1 sequence (Q14973 1-349): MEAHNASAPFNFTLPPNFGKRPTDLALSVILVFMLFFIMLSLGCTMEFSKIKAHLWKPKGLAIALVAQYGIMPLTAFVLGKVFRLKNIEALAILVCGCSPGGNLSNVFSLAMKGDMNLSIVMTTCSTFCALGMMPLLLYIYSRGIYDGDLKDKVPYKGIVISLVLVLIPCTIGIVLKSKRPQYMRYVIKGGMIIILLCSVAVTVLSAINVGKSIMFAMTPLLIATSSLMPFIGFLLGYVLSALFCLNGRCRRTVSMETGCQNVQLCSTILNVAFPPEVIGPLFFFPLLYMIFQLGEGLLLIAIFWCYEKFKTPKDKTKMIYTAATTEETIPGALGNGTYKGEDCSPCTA

human NTCP [2] = target: T1, human NTCP; test: Screening taurocholate uptake assay (96-well, [14C]taurocholate, 10 µM drug)
[3] = Prestwick library screen, 10 µM drug, B-score of Myrcludex B-FITC binding
[4] = Prestwick library screen, 10 µM drug, B-score of taurocholate uptake
[5] = combined ranking from functional and binding assay B-scores
[6] = screen, 10 µM drug, Myrcludex B-FITC binding
[7] = combined ranking from functional and binding screening assays
[8] = screen, 10 µM drug, taurocholate uptake
[9] = Prestwick library screen, Myrcludex B-FITC binding, 10 µM drug
[10] = Prestwick library screen, taurocholate uptake, 10 µM drug
[11] = ranking score beside the functional and binding assay B-scores of the screen

## COc1cccc(N(C)C(=S)Oc2ccc3c(c2)CCCC3)n1 [Liranaftate]
Human NTCP [1]; [3]
  B-score binding assay: 0.615
Human NTCP [2]; [4]
  B-score functional assay: 0.374
Human NTCP [2]; [5]
  Ranking score: 904.804

## C[N+](C)(C)CCCCCCCCCC[N+](C)(C)C [Decamethonium bromide]
Human NTCP [1]; [6]
  B-score binding assay: 0.021
Human NTCP [2]; [7]
  Ranking score: 433.577
Human NTCP [2]; [8]
  B-score functional assay: -0.848

## C[C@H]1[C@H](NC(=O)/C(=N\OC(C)(C)C(=O)O)c2csc(N)n2)C(=O)N1S(=O)(=O)O [Aztreonam]
Human NTCP [1]; [3]
  B-score binding assay: 0.858
Human NTCP [2]; [4]
  B-score functional assay: 1.332
Human NTCP [2]; [5]
  Ranking score: 1061.36

## CCN(CC)C(=O)N1CCN(C)CC1 [Diethylcarbamazine citrate]
Human NTCP [1]; [9]
  B-score binding assay: -0.121
Human NTCP [2]; [10]
  B-score functional assay: 0.671
Human NTCP [2]; [11]
  Ranking score: 718.594

## Clc1ccc(C(c2ccccc2Cl)C(Cl)Cl)cc1 (stereo not drawn) [Mitotane]
Human NTCP [1]; [6]
  B-score binding assay: 2.009
Human NTCP [2]; [7]
  Ranking score: 352.681
Human NTCP [2]; [8]
  B-score functional assay: -2.371

## CN(N=O)C(=O)N[C@H]1C(O)O[C@H](CO)[C@@H](O)[C@@H]1O (mixture of isomers) [Streptozotocin]
Human NTCP [1]; [6]
  B-score binding assay: -0.654
Human NTCP [2]; [7]
  Ranking score: 307.444
Human NTCP [2]; [8]
  B-score functional assay: -0.84

## Cc1ccc(-c2cc(C(F)(F)F)nn2-c2ccc(S(N)(=O)=O)cc2)cc1 [Celecoxib]
Human NTCP [1]; [9]
  B-score binding assay: 0.033
Human NTCP [2]; [10]
  B-score functional assay: 0.148
Human NTCP [2]; [11]
  Ranking score: 728.485

## CCN(CC)CCNC(=O)COc1ccc(OC)cc1.Cl [Mefexamide hydrochloride]
Human NTCP [1]; [3]
  B-score binding assay: 0.456
Human NTCP [2]; [4]
  B-score functional assay: 1.015
Human NTCP [2]; [5]
  Ranking score: 979.142

## Cc1nccn1CC1CCc2c(c3ccccc3n2C)C1=O.Cl (stereo not drawn) [Ondansetron Hydrochloride]
Human NTCP [1]; [9]
  B-score binding assay: 0
Human NTCP [2]; [10]
  B-score functional assay: 0.043
Human NTCP [2]; [11]
  Ranking score: 666.933

## C#CCN[C@@H]1CCc2ccccc21 [Rasagiline]
Human NTCP [1]; [9]
  B-score binding assay: 0.275
Human NTCP [2]; [10]
  B-score functional assay: -0.098
Human NTCP [2]; [11]
  Ranking score: 667.796

## CN1CCCCC1CCN1c2ccccc2Sc2ccc([S+](C)[O-])cc21 (stereo not drawn) [Mesoridazine besylate]
Human NTCP [1]; [3]
  B-score binding assay: 0.002
Human NTCP [2]; [4]
  B-score functional assay: 2.438
Human NTCP [2]; [5]
  Ranking score: 892.285

## Cc1nnc(NS(=O)(=O)c2ccc(N)cc2)s1 [Sulfamethizole]
Human NTCP [1]; [3]
  B-score binding assay: 0.555
Human NTCP [2]; [4]
  B-score functional assay: 1.973
Human NTCP [2]; [5]
  Ranking score: 1054.65

## CCN(CC)CCNC(=O)c1cc(S(C)(=O)=O)ccc1OC [Tiapride hydrochloride]
Human NTCP [1]; [3]
  B-score binding assay: 0.4
Human NTCP [2]; [4]
  B-score functional assay: 1.625
Human NTCP [2]; [5]
  Ranking score: 1010.78

## CC(NCCC(c1ccccc1)c1ccccc1)c1ccccc1 (stereo not drawn) [Fendiline hydrochloride]
Human NTCP [1]; [3]
  B-score binding assay: 0.223
Human NTCP [2]; [4]
  B-score functional assay: 0.662
Human NTCP [2]; [5]
  Ranking score: 880.552

## Fc1ccc([C@@H]2CCNC[C@H]2COc2ccc3c(c2)OCO3)cc1 [Paroxetine Hydrochloride]
Human NTCP [1]; [3]
  B-score binding assay: 1.07
Human NTCP [2]; [4]
  B-score functional assay: 0.185
Human NTCP [2]; [5]
  Ranking score: 918.273

## C#C[C@]1(O)CC[C@H]2[C@@H]3[C@H](C)CC4=C(CCC(=O)C4)[C@H]3CC[C@@]21C [Tibolone]
Human NTCP [1]; [3]
  B-score binding assay: 0.535
Human NTCP [2]; [4]
  B-score functional assay: 0.613
Human NTCP [2]; [5]
  Ranking score: 930.923

## CCC1=C(C)CN(C(=O)NCCc2ccc(S(=O)(=O)NC(=O)N[C@H]3CC[C@H](C)CC3)cc2)C1=O [Glimepiride]
Human NTCP [1]; [6]
  B-score binding assay: 0.412
Human NTCP [2]; [7]
  Ranking score: 350.338
Human NTCP [2]; [8]
  B-score functional assay: -1.888

## Nc1ccc(S(=O)(=O)Nc2ccccn2)cc1 [Sulfapyridine]
Human NTCP [1]; [6]
  B-score binding assay: -1.889
Human NTCP [2]; [7]
  Ranking score: 331.804
Human NTCP [2]; [8]
  B-score functional assay: 0.557

## Cc1cccc(C)c1N=C1NCCCS1 [Xylazine]
Human NTCP [1]
  B-score binding assay: -0.164
Human NTCP [2]
  B-score functional assay: -0.697
  Ranking score: 404.611

## COc1cc(NS(=O)(=O)c2ccc(N)cc2)nc(OC)n1 [Sulfadimethoxine]
Human NTCP [1]; [9]
  B-score binding assay: -0.117
Human NTCP [2]; [10]
  B-score functional assay: 0.762
Human NTCP [2]; [11]
  Ranking score: 733.169

## CCc1c(C)[nH]c2c1C(=O)C(CN1CCOCC1)CC2 (stereo not drawn) [Molindone hydrochloride]
Human NTCP [1]; [6]
  B-score binding assay: 0.009
Human NTCP [2]; [7]
  Ranking score: 412.337
Human NTCP [2]; [8]
  B-score functional assay: -0.958

## CCn1cc(C(=O)O)c(=O)c2cc3c(cc21)OCO3 [Oxolinic acid]
Human NTCP [1]; [9]
  B-score binding assay: 1.837
Human NTCP [2]; [10]
  B-score functional assay: -0.139
Human NTCP [2]; [11]
  Ranking score: 776.518

## C[C@]12CC[C@H](O)C[C@H]1CC[C@@H]1[C@@H]2C[C@@H](O)[C@]2(C)[C@@H](C3=CC(=O)OC3)CC[C@]12O [Digoxigenin]
Human NTCP [1]; [6]
  B-score binding assay: -1.199
Human NTCP [2]; [7]
  Ranking score: 283.718
Human NTCP [2]; [8]
  B-score functional assay: -0.468

## CNCCCC1c2ccccc2C=Cc2ccccc21 [Protriptyline hydrochloride]
Human NTCP [1]; [6]
  B-score binding assay: -0.431
Human NTCP [2]; [7]
  Ranking score: 390.896
Human NTCP [2]; [8]
  B-score functional assay: -0.483

## CN(C)CCCO[C@@H]1[C@H]2OC(C)(C)O[C@H]2O[C@@H]1[C@H](O)CO [Amiprilose hydrochloride]
Human NTCP [1]; [9]
  B-score binding assay: 0.378
Human NTCP [2]; [10]
  B-score functional assay: 0.017
Human NTCP [2]; [11]
  Ranking score: 760.053

## CCCCOc1cc(C(=O)OCCN(CC)CC)ccc1N [Benoxinate hydrochloride]
Human NTCP [1]; [6]
  B-score binding assay: -1.11
Human NTCP [2]; [7]
  Ranking score: 454.623
Human NTCP [2]; [8]
  B-score functional assay: 0.537

## COc1cc([C@@H]2c3cc4c(cc3[C@@H](O[C@@H]3O[C@@H]5CO[C@@H](C)O[C@H]5[C@H](O)[C@H]3O)[C@H]3COC(=O)[C@H]23)OCO4)cc(OC)c1O [Etoposide]
Human NTCP [1]; [6]
  B-score binding assay: 0.046
Human NTCP [2]; [7]
  Ranking score: 333.467
Human NTCP [2]; [8]
  B-score functional assay: -1.678

## Cc1ccc(Cl)c(Nc2ccccc2C(=O)[O-])c1Cl.O.[Na+]
Human NTCP [1]; [6]
  B-score binding assay: 0.415
Human NTCP [2]; [7]
  Ranking score: 386.518
Human NTCP [2]; [8]
  B-score functional assay: -1.621

## C[C@]12C[C@H]3S[C@H]3C[C@@H]1CC[C@@H]1[C@@H]2CC[C@]2(C)[C@@H](O)CC[C@@H]12 [Epitiostanol]
Human NTCP [1]
  B-score binding assay: 0.911
Human NTCP [2]
  B-score functional assay: 0.926
  Ranking score: 1032.88

## CN(C)C(=O)Oc1cccc([N+](C)(C)C)c1 [Neostigmine bromide]
Human NTCP [1]; [9]
  B-score binding assay: 0.229
Human NTCP [2]; [10]
  B-score functional assay: -0.02
Human NTCP [2]; [11]
  Ranking score: 703.343

## Cc1cc2c(s1)Nc1ccccc1N=C2N1CCN(C)CC1 [Olanzapine]
Human NTCP [1]; [3]
  B-score binding assay: 2.253
Human NTCP [2]; [4]
  B-score functional assay: 0.458
Human NTCP [2]; [5]
  Ranking score: 1041.63

## CN1CCN(CC(=O)N2c3ccccc3C(=O)Nc3cccnc32)CC1 [Pirenzepine dihydrochloride]
Human NTCP [1]; [3]
  B-score binding assay: 0.089
Human NTCP [2]; [4]
  B-score functional assay: 0.753
Human NTCP [2]; [5]
  Ranking score: 857.349

## NCC1(CC(=O)O)CCCCC1 [Gabapentin]
Human NTCP [1]; [6]
  B-score binding assay: 0.068
Human NTCP [2]; [7]
  Ranking score: 428.131
Human NTCP [2]; [8]
  B-score functional assay: -0.982

## CCCCCCNC(=O)n1cc(F)c(=O)[nH]c1=O [Carmofur]
Human NTCP [1]; [6]
  B-score binding assay: 0.877
Human NTCP [2]; [7]
  Ranking score: 358.68
Human NTCP [2]; [8]
  B-score functional assay: -2.036

## C[C@@H]1CC[C@H]2[C@@H](C)C(=O)O[C@@H]3O[C@@]4(C)CC[C@@H]1[C@]32OO4 [Artemisinin]
Human NTCP [1]; [9]
  B-score binding assay: -0.138
Human NTCP [2]; [10]
  B-score functional assay: 0.234
Human NTCP [2]; [11]
  Ranking score: 655.672

## CC(Cc1cccc(C(F)(F)F)c1)NCCOC(=O)c1ccccc1 (stereo not drawn) [Benfluorex]
Human NTCP [1]; [3]
  B-score binding assay: 1.025
Human NTCP [2]; [4]
  B-score functional assay: 0.848
Human NTCP [2]; [5]
  Ranking score: 1033.89
